Assay results: patent US11339110B2, “Efficient crystallization process for preparing ultrapure Treprostinil and crystal prepared therefrom” (CHIROGATE INTERNATIONAL INC., priority 2019, dated 2022)

How the values were obtained:
Type in all cases: physicochemical
[1] = Stability of Treprostinil in ethanol (UPLC tracing of ethyl ester and dimers); conditions: 40±1° C.; for Treprostinil / Treprostinil dimer-1 (IT201d1) / Treprostinil dimer-2 (IT201d2) / Treprostinil ethyl ester (IT201e2): 1.00 g in 5 ml ethanol, UPLC
Procedure: (§1) Ultra Performance Liquid Chromatography (UPLC) Analysis: The UPLC spectra were collected on a Waters ACQUITY UPLC instrument. The conditions were shown as the following: The sample is diluted to 1 mg/ml by […] (v/v) acetonitrile/H2O. The column is Waters BEH C18, 1.7 μm, 2.1*150 mm. The mobile phase is 60/40 (v/v) buffer/acetonitrile from 0 to 10 min, gradient changes of buffer/acetonitrile from 60/40 to 5/95 (v/v) (curve 6) from 10 to 20 min, 5/95 (v/v) buffer/acetonitrile from 20 to 25 min, gradient changes of buffer/acetonitrile from 5/95 to 0/100 (v/v) (curve 6) from 25 to 30 min, 0/100 (v/v) buffer/acetonitrile from 30 to 35 min. Buffer solution is pH 3.0 aqueous solution adjusted by trifluoroacetic acid. The flow rate is set as 0.42 ml/min. Column temperature is set as 45° C., sample temperature is set as 25° C. Injection is 1.5 μL. Run time is 35 min. UV detector is set as 210 nm.
1.00 g Treprostinil was dissolved in 5 ml ethanol in a glass vial at room temperature to form a homogenous solution, which was stirred at 40±1° C. oil bath and periodically sampled to UPLC measurement for tracing the formation of Treprostinil ethyl ester and Treprostinil dimers.

[2] = Stability of Treprostinil stored in a glass vial at 40° C. (UPLC tracing of ethyl ester and dimers); conditions: 40±1° C.; for Treprostinil / Treprostinil dimer-1 (IT201d1) / Treprostinil dimer-2 (IT201d2): no solvent, glass vial, UPLC
Procedure: as §1
0.01% g Treprostinil was placed in a glass vial and stirred at 40±1° C. oil bath and periodically sampled to UPLC measurement for tracing the formation of Treprostinil ethyl ester and Treprostinil dimers.

[3] = Filterability of Treprostinil crystal (microfiltration, pressure change during filtering); conditions: 100 ml sample solution, 25±1° C., 0.22 μm hydrophilic PVDF membrane
Procedure: The filterability of sample solution is numerical estimated by the pressure changes inside the microfiltration assemblies during filtering. The microfiltration assemblies with 47 mm fritted glass, 0.22 μm hydrophilic PVDF filter membrane, 250 ml bottle, PANCHUM VP-900 dry pump, and an external pressure gauge were settled for tracing the pressure changes during filtration. The usage volume of sample solution for filtering was set as 100 ml and the filtering temperature was set as 25±1° C. for comparing the filterability of samples in a similar experimental condition.
Sample of crystalline Form I of anhydrous Treprostinil in ethyl acetate (containing 3% v/v water) was prepared from Example 5, and the concentration is about 0.05 g/ml. Sample of crystalline Form A of anhydrous Treprostinil in acetonitrile was prepared as disclosed by U.S. Pat. No. 9,278,903 Example 12, and the concentration is about 0.02 g/ml. […] The pressure changes of pure ethyl acetate, pure acetonitrile, crystalline Form I of anhydrous Treprostinil in ethyl acetate (containing 3% v/v water), crystalline Form A of anhydrous Treprostinil in acetonitrile, and monohydrated Treprostinil crystal in ethanol/water during filtration were measured and the results am shown in FIG. 10.

- Treprostinil ([1]; time 0 h): 99.88%
- Treprostinil dimer-1 (IT201d1) ([1]; time 0 h): 0.04%
- Treprostinil dimer-2 (IT201d2) ([1]; time 0 h): 0.06%
- Treprostinil ethyl ester (IT201e2) ([1]; time 0 h): 0.02%
- Treprostinil ([1]; time 2 h): 99.50%
- Treprostinil dimer-1 (IT201d1) ([1]; time 2 h): 0.04%
- Treprostinil dimer-2 (IT201d2) ([1]; time 2 h): 0.07%
- Treprostinil ethyl ester (IT201e2) ([1]; time 2 h): 0.39%
- Treprostinil ([1]; time 4 h): 99.07%
- Treprostinil dimer-1 (IT201d1) ([1]; time 4 h): 0.06%
- Treprostinil dimer-2 (IT201d2) ([1]; time 4 h): 0.06%
- Treprostinil ethyl ester (IT201e2) ([1]; time 4 h): 0.81%
- Treprostinil ([1]; time 6 h): 98.68%
- Treprostinil dimer-1 (IT201d1) ([1]; time 6 h): 0.07%
- Treprostinil dimer-2 (IT201d2) ([1]; time 6 h): 0.07%
- Treprostinil ethyl ester (IT201e2) ([1]; time 6 h): 1.18%
- Treprostinil ([1]; time 8 h): 98.15%
- Treprostinil dimer-1 (IT201d1) ([1]; time 8 h): 0.10%
- Treprostinil dimer-2 (IT201d2) ([1]; time 8 h): 0.11%
- Treprostinil ethyl ester (IT201e2) ([1]; time 8 h): 1.64%
- Treprostinil ([1]; time 10 h): 97.73%
- Treprostinil dimer-1 (IT201d1) ([1]; time 10 h): 0.12%
- Treprostinil dimer-2 (IT201d2) ([1]; time 10 h): 0.11%
- Treprostinil ethyl ester (IT201e2) ([1]; time 10 h): 2.04%
- Treprostinil ([1]; time 12 h): 97.41%
- Treprostinil dimer-1 (IT201d1) ([1]; time 12 h): 0.13%
- Treprostinil dimer-2 (IT201d2) ([1]; time 12 h): 0.09%
- Treprostinil ethyl ester (IT201e2) ([1]; time 12 h): 2.37%
- formation rate of Treprostinil dimers ([1]; dissolved in ethanol): about 0.01 % per hour
- formation rate of Treprostinil ethyl ester ([1]; dissolved in ethanol): about 0.2 % per hour
- formation rate of Treprostinil dimers ([2]; Treprostinil stored without solvent): about 0.01 % per hour
- Treprostinil ([2]; time 0 h): 99.90%
- Treprostinil dimer-1 (IT201d1) ([2]; time 0 h): 0.04%
- Treprostinil dimer-2 (IT201d2) ([2]; time 0 h): 0.06%
- Treprostinil ([2]; time 2 h): 99.89%
- Treprostinil dimer-1 (IT201d1) ([2]; time 2 h): 0.06%
- Treprostinil dimer-2 (IT201d2) ([2]; time 2 h): 0.05%
- Treprostinil ([2]; time 4 h): 99.88%
- Treprostinil dimer-1 (IT201d1) ([2]; time 4 h): 0.06%
- Treprostinil dimer-2 (IT201d2) ([2]; time 4 h): 0.06%
- Treprostinil ([2]; time 6 h): 99.84%
- Treprostinil dimer-1 (IT201d1) ([2]; time 6 h): 0.07%
- Treprostinil dimer-2 (IT201d2) ([2]; time 6 h): 0.08%
- Treprostinil ([2]; time 8 h): 99.83%
- Treprostinil dimer-1 (IT201d1) ([2]; time 8 h): 0.08%
- Treprostinil dimer-2 (IT201d2) ([2]; time 8 h): 0.09%
- Treprostinil ([2]; time 10 h): 99.79%
- Treprostinil dimer-1 (IT201d1) ([2]; time 10 h): 0.09%
- Treprostinil dimer-2 (IT201d2) ([2]; time 10 h): 0.12%
- Treprostinil ([2]; time 12 h): 99.77%
- Treprostinil dimer-1 (IT201d1) ([2]; time 12 h): 0.10%
- Treprostinil dimer-2 (IT201d2) ([2]; time 12 h): 0.13%
- finish time of filtration ([3]; 47 mm fritted glass): about 92 seconds
- solution filtered ([3]; until about 180 seconds): ~80%
Compound: CCCCC[C@H](O)CC[C@@H]1[C@H]2Cc3cccc(OCC(=O)O)c3C[C@H]2C[C@H]1O [Treprostinil]
